According to US10976320B2, “Methods for identifying and treating cancer patients” (The Board of Trustees of the Leland Stanford Junior …, priority 2013, dated 2021):

Key:
[1] = system: Brg1fl/fl(ERD) ESCs; assay: Cell cycle analysis (BrdU/7-AAD FACS) with or without caffeine; type: cell-based, mouse; settings: caffeine added to media 2 h before BrdU incubation; FIG. 1D
Text: FIG. 1A-FIG. 1F. BRG1 associates with Topo2A and regulates its function. FIG. 1A, Anaphase bridges in Brg1^fl/fl and Brg1^fl/fl(ERD) ESCs. Data represent number of slides from four independent experiments±s.e.m. FIG. 1B, Co-immunoprecipitation of BRG1 and Topo2A from nuclear lysates. FIG. 1C, DNA content in Brg1^fl/fl and Brg1^fl/fl(ERD) ESCs after release from double thymidine block. FIG. 1D, Cell cycle analysis of Brg1^fl/fl and Brg1^fl/fl(ERD) ESCs with or without caffeine, an ATM/ATR inhibitor. FIG. 1E, Data represent five independent histone H3 serine 10 phosphorylation (H3(S10)P cell cycle analyses±s.e.m. FIG. 1F, Data represent the mean of the average chromosome length per cell from 40 cells from metaphase spreads of Brg1^fl/fl and Brg1^fl/fl(ERD) MEFs from two independent experiments.
The cell cycle analysis was performed using BD Biosciences BrdU-FITC FACS kit. ESCs were incubated with BrdU for 1 h and MEFs were incubated with BrdU for 4 h. Brg1^fl/fl and Brg1^fl/fl(ERD) ESCs were analysed 72 h after tamoxifen treatment. Caffeine was added to media 2 h before BrdU incubation. To determine the percent of cells in G2/M, DNA was stained with 7-AAD and analysed by FACS.

[2] = system: NCI60 non small cell lung cancer lines expressing BRG1/BRM or deficient in both; settings: BRG1/BRM-deficient vs expressing NCI60 lung lines; IC50 (μM) only plotted in FIG. 12A-B; CellMiner data; cited from earlier work
[3] = system: ARID1A wild-type cells (293T and ES2) and ARID1A mutant cells (Hec1b, SKOV3, T47D, and TOV21G); assay: Synthetic lethal screen, Cell Titer Blue viability after treatment with topoisomerase inhibitors; type: cell-based; settings: ARID1A mutant vs wild-type cell lines; IC50 (μM) only plotted in FIG. 11A-C; 72 h after compound addition
Experimental: FIG. 11A-FIG. 11C. Synthetic lethal screen comparing the sensitivity of ARID1A wild-type cells (293T and ES2) and ARID1A mutant cells (Hec1b, SKOV3, T47D, and TOV21G) to treatment with topoisomerase inhibitors. Values of IC50 (μM) are plotted on the y-axis, with error bars as shown. FIG. 11A: treatment with etoposide; FIG. 11B: treatment with doxorubicin; FIG. 11C: treatment with ICRF-193.
In each case, 1500-2000 cells were plated in 100 ul per 384 well clear bottom black plate (E&K Scientific EK-30091). After 24 hours, doses of the listed compound diluted in DMSO were pinned into the plates. After 48 hours, 10 ul of Cell Titer Blue (Promega) was added, and the cells were placed back in the incubator. Fluorescence was read after another 24 hours. IC50 values (μM) are reported on the y-axis.

Row | Compound | effect on G2/M arrest [1] | sensitivity of cell lines carrying mutations in BAF subunits to the topoisomerase inhibitor [2] | sensitivity of cell lines carrying mutations in BAF subunits to the topoisomerase inhibitor [3]
1 | Cn1c(=O)c2c(ncn2C)n(C)c1=O [Caffeine] | overrides the G2/M arrest | – | –
2 | COc1cccc2c1C(=O)c1c(O)c3c(c(O)c1C2=O)C[C@@](O)(C(=O)CO)C[C@@H]3O[C@H]1C[C@H](N)[C@H](O)[C@H](C)O1 [doxorubicin] | – | decreased sensitivity | decreased sensitivity
3 | COc1cc([C@@H]2c3cc4c(cc3[C@@H](O[C@@H]3O[C@@H]5CO[C@@H](C)O[C@H]5[C@H](O)[C@H]3O)[C@H]3COC(=O)[C@H]23)OCO4)cc(OC)c1O [etoposide] | – | decreased sensitivity | decreased sensitivity
4 | ICRF-193 | – | – | no difference in the sensitivity
